Starred links: 1 amine or outer side, 2 acyl side, 3 side chain; linkers in the order of their positions; H or OH if unused. Residues, ends and D or L forms follow the SMILES beside them. Suc = O=C(CCC(=O)[*:2])[*:1]
Question: With `CCCn1nc2c(N)nc3ccccc3c2c1CCCCCl` as the molecule, how does the melting point read?
Answer: 172 to 173 °C

Question: Which melting point does the source give for `COc1c(C)c(C)c(OC)c(Cn2ccnc2)c1C` here?
Answer: 82 to 83 °C

Question: For `CC(C)c1nc2c(nc1C(C)C)-c1c(c(-c3ccc(C(=O)O)cc3)cn1Cc1cccnc1)CC2`, which melting point is on record?
Answer: 100 to 102 °C

Question: Which melting point does the source give for `CCCOc1ccccc1-c1nc2c(C(=O)O)cccc2c(=O)[nH]1` here?
Answer: 195 to 197 °C

Question: Which melting point does the source give for `O=S(=O)(CCCc1nc(-c2ccc(F)cc2)c(-c2ccncc2)[nH]1)c1ccccc1` here?
Answer: 109 to 110 °C

Question: Which melting point does the source give for `CCOC(=O)CCCC(=O)c1ccc(OCCCCCBr)c(CCC(=O)OCC)c1` here?
Answer: 48 to 49 °C

Question: For `COc1cccc(OC)c1C(=N)N`, which melting point is on record?
Answer: 170 to 174 °C

Question: Which melting point does the source give for `CCNC(=O)c1cc(Cl)ccc1Br` here?
Answer: 98 to 99 °C

Question: Which melting point does the source give for `Cc1c(C=O)c2cnnc(NCc3ccccc3)c2n1Cc1ccccc1` here?
Answer: 171 to 172 °C

Question: For `COc1cccc(OC)c1C(=O)Nc1cc(C(C)(C)C)ns1`, which melting point is on record?
Answer: 266 to 267 °C

Question: With `CCOC(=O)C(S)CC(=O)c1ccc(Oc2ccc(Cl)cc2)cc1` (stereo not drawn) as the molecule, how does the melting point read?
Answer: 75.5 to 76.5 °C

Question: Which melting point does the source give for `CCNc1nc(SC)ncc1CNc1c(F)c(OC)cc(OC)c1F` here?
Answer: 95 to 99 °C

Question: Which melting point does the source give for `Cc1ccc(S(=O)(=O)OCC2Cc3c(Br)cccc3O2)cc1` (stereo not drawn) here?
Answer: 90 to 91 °C

Question: For `CC(C)(C(=O)Nc1cccc(Cl)c1)N1COC(CBr)=C(c2ccccc2)C1=O`, which melting point is on record?
Answer: 89.8 to 90.8 °C

Question: Which melting point does the source give for `S=C=Nc1ccccc1N1CCCCC1` here?
Answer: 143 to 145 °C

Question: With `COc1cc2ncnc(NC3=CC(=O)C(Oc4ccccc4)=CC3=O)c2cc1OC` as the molecule, how does the melting point read?
Answer: 228 to 234 °C

Question: With `OC1CCN(c2nc(-c3ccccc3)nc3ccccc23)CC1` as the molecule, how does the melting point read?
Answer: 165 to 167 °C

Question: With `Cc1nc2c(n1C)CCCC2=O` as the molecule, how does the melting point read?
Answer: 98.1 °C

Question: For `CC(C)Cc1cc2nnc(-c3ccccc3F)n2nc1OCc1ncnn1C`, which melting point is on record?
Answer: 134 to 136 °C

Question: With `O=C(Nc1ccc(S(=O)(=O)C(F)(F)F)cc1Cl)c1c(O)c(C23CC4CC(CC(C4)C2)C3)cc2c1CCC2` as the molecule, how does the melting point read?
Answer: 218 to 219 °C

Question: Which melting point does the source give for `COc1ccc(OC)c(C(=O)/C=C/c2ccc3c(c2)OCO3)c1` here?
Answer: 101 °C

Question: With `COc1ccc2cc(C(C)(O)C(=O)O)ccc2c1` (stereo not drawn) as the molecule, how does the melting point read?
Answer: 150 to 152 °C

Question: Which melting point does the source give for `CCCCCOc1ccc2cc(CC[C@@](C)(N)COP(=O)(O)O)ccc2c1` here?
Answer: 266 to 267 °C

Question: For `Cc1c(NC(=O)c2ccc(C#CC3(O)CCC3)cc2)ccc2cc(CNCC(C)C)n(C)c12`, which melting point is on record?
Answer: 222 to 223 °C

Question: With `Cn1c(Sc2cccc(C(F)(F)F)c2)nc2c(-c3cccc(C(=O)NCCO)c3)cccc21` as the molecule, how does the melting point read?
Answer: 138 to 139 °C

Question: With `COCCCS(=O)(=O)NC(=O)CCc1cc(C(C)(C)C)nn1Cc1ccc(C(F)(F)F)cc1Cl` as the molecule, how does the melting point read?
Answer: 149 to 150 °C

Question: For `Fc1ccc(-c2c(-c3ccccc3)oc3ncnc(Cl)c23)cc1`, which melting point is on record?
Answer: 124 to 127 °C

Question: With `Fc1ccc(CN2CCN(C3CC=C(c4ccc(F)cc4)CC3)CC2)cc1` (stereo not drawn) as the molecule, how does the melting point read?
Answer: 109 to 110 °C

Question: For `CCCCCCCCCCCC(=O)Nc1cc([N+](=O)[O-])ccc1F`, which melting point is on record?
Answer: 75 to 77 °C

Question: With `Nc1nc(-c2ccccc2)nc2nc(-c3ccco3)nn12` as the molecule, how does the melting point read?
Answer: > 300 °C

Question: For `CC(=O)OCc1c(C(=O)C(=O)O)c2cc(-c3cccc(C)c3)ccc2n1Cc1ccc(C(C)(C)C)cc1`, which melting point is on record?
Answer: 91 to 92 °C

Question: For `Cc1ccc(CCCNCC(O)c2cccc(C(F)(F)F)c2)cc1` (stereo not drawn), which melting point is on record?
Answer: 52 to 55 °C

Question: Which melting point does the source give for `CN(Cc1cc(C(F)(F)F)cc(C(F)(F)F)c1)C(=O)c1cnc2ccc(Cl)cc2c1-c1ccccc1` here?
Answer: 105 to 106 °C

Question: With `Cc1oc(-c2ccccc2)nc1CCOc1ccc(C[C@@H](C(=O)O)N2CCN(S(=O)(=O)c3ccc(F)cc3)CC2)cc1` as the molecule, how does the melting point read?
Answer: 198 to 200 °C

Question: Which melting point does the source give for `CN(C)c1ccc2sccc2c1` here?
Answer: 52 to 54 °C

Question: Which melting point does the source give for `CCCCCCCCCC[C@H](CC(=O)OC(C)(C)C)C(=O)N1C(=O)OC[C@@H]1C(C)C` here?
Answer: 42 to 43 °C

Question: Which melting point does the source give for `CC(=O)Nc1ccc2c(c1)C(=O)NC2=O` here?
Answer: > 250 °C

Question: For `CCCN(CCC)c1nc2c(c(-c3c(C)cc(C)cc3C)cn2C)c(=O)n1C`, which melting point is on record?
Answer: 100 to 102 °C

Question: With `CC(=O)NC1CCN(CCC2CCOc3ccccc32)CC1` (stereo not drawn) as the molecule, how does the melting point read?
Answer: 126 to 128 °C

Question: With `Cc1ccc(Cl)c2c1N(C1CC1)CNS2(=O)=O` as the molecule, how does the melting point read?
Answer: 215 to 217 °C

Question: With `CCCCc1ccc2c(c1)Cc1cc(C(C)=O)ccc1-2` as the molecule, how does the melting point read?
Answer: 102 to 104 °C

Question: Which melting point does the source give for `COc1cc2ccc3c4cc5c(cc4ncc3c2cc1OC)OCO5` here?
Answer: 171 °C

Question: With `COCc1c(C(=O)OC(C)C)ncc2[nH]c3cccc(OCc4ccccc4)c3c12` as the molecule, how does the melting point read?
Answer: 173 to 174 °C

Question: For `N#Cc1ccc(N2Cc3ccccc3C2)c2ccccc12`, which melting point is on record?
Answer: 156 to 158 °C

Question: With `CCNC(=O)C1CCCN1C(=O)C(C)NC(=O)C(C)NC(=O)CCC(=O)O` (stereo not drawn) (Suc-Ala-Ala-Pro-NHEt; configuration not given here) as the molecule, how does the melting point read?
Answer: 185 to 186 °C

Question: Which melting point does the source give for `C#CC[C@@H](N)c1nc2cccnc2c(=O)n1Nc1ccccc1` here?
Answer: 206 to 208 °C

Question: With `COc1ccc(F)c(F)c1C(=O)c1cnc(Cl)nc1Cl` as the molecule, how does the melting point read?
Answer: 137 to 139 °C

Question: For `Brc1nc2ncsc2nc1Br`, which melting point is on record?
Answer: 142 to 144 °C

Question: For `CC(C)N1CC(=O)N(C(C)C)CC1=O`, which melting point is on record?
Answer: 177 to 180 °C

Question: For `CS(=O)(=O)c1cc(C(=O)O)cc(NCc2ccco2)c1Cl`, which melting point is on record?
Answer: 216 °C

Question: With `N#Cc1c(Cl)c2cc(Cl)ccc2n(Cc2ccccc2)c1=O` as the molecule, how does the melting point read?
Answer: 243 °C

Question: Which melting point does the source give for `CCc1noc(-c2ncn(-c3cccc(Oc4ccc([N+](=O)[O-])cc4)c3)c2COC)n1` here?
Answer: 126 to 127 °C

Question: Which melting point does the source give for `Cc1ccc(S(=O)(=O)CS(C)(=O)=O)cc1` here?
Answer: 164 to 165 °C

Question: With `COc1ccccc1-c1coc2c(O)c(O)ccc2c1=O` as the molecule, how does the melting point read?
Answer: 220 to 222 °C

Question: Which melting point does the source give for `COc1cc(C2(OC)CCOCC2)ccc1OCc1ccc2c(ccc(=O)n2C)c1` here?
Answer: 172 to 173 °C

Question: Which melting point does the source give for `COC(=O)N1CCC(c2n[nH]c3cc(Cl)ccc23)CC1` here?
Answer: 132 to 134 °C

Question: Which melting point does the source give for `O=[N+]([O-])C=Cc1ccc(O)c(Cl)c1` here?
Answer: 127 to 129 °C

Question: Which melting point does the source give for `CCOc1nn(-c2ccccn2)cc1CCCOc1cc(CCC(=O)O)n(-c2ccccc2)n1` here?
Answer: 156 to 157 °C

Question: Which melting point does the source give for `CCCn1c(=O)[nH]c2cnc(-c3ccccc3)nc21` here?
Answer: 263 to 264 °C

Question: Which melting point does the source give for `CCOC(=O)c1nc2cc(C)c(C)cc2nc1Cl` here?
Answer: 109 to 111 °C

Question: Which melting point does the source give for `CCOC(=O)c1csc(NC(=O)c2ccccc2)n1` here?
Answer: 146 to 147 °C

Question: With `COC(=O)c1ccc(C(C)=O)o1` as the molecule, how does the melting point read?
Answer: 101 to 102 °C

Question: With `CC12CCC3c4ccc(O)cc4CCC3(C=C(F)F)C1CCC2O` (stereo not drawn) as the molecule, how does the melting point read?
Answer: 154 to 156 °C

Question: Which melting point does the source give for `COC(=O)c1cnco1` here?
Answer: 35 to 50 °C

Question: Which melting point does the source give for `CCOC(=O)N1CCC(NS(=O)(=O)c2ccc3ccccc3c2)CC1` here?
Answer: 128 °C

Question: With `CCCCOCCOc1ccc(-c2ccc3c(c2)C=C(C(=O)Nc2ccc(CCCn4cnnc4)cc2)CCN3CC(C)C)cc1` as the molecule, how does the melting point read?
Answer: 165 to 167 °C

Question: With `CN1C(O)=C(C(=O)Nc2ccc(Cl)cc2)c2cscc2S1(=O)=O` as the molecule, how does the melting point read?
Answer: 154 to 156 °C

Question: With `O=C(c1c(O)c2ccccc2c2nc3ccccc3nc12)N1CCOCC1` as the molecule, how does the melting point read?
Answer: 223 to 225 °C

Question: Which melting point does the source give for `CCCCc1nc2cc(C(=O)OC)ccc2[nH]1` here?
Answer: 108 to 110 °C

Question: With `Clc1ccc(-c2ccco2)nn1` as the molecule, how does the melting point read?
Answer: 103 to 104 °C

Question: Which melting point does the source give for `COc1cc2c(cc1C(F)(F)F)N(C(=O)Nc1cccc(-c3cncnc3)c1)CC2` here?
Answer: 226 to 228 °C

Question: With `Cc1cc(OCc2ccc(-c3ccccc3-c3nnn(C(c4ccccc4)(c4ccccc4)c4ccccc4)n3)cc2)c(CO)c(C)n1` as the molecule, how does the melting point read?
Answer: 68 to 70 °C

Question: For `CC(Cl)=CCC1CCC2C(C=CC3=CCCc4c3n2c2ccncc42)C1` (stereo not drawn), which melting point is on record?
Answer: 130 to 132 °C

Reference: a melting point compilation (Tetko et al.; mined from patent text by program, amines drawn as free bases though some values may be those of a salt)
